From ChEMBL document CHEMBL1129695, “Synthesis and structure-activity relationships of 6-substituted androst-4-ene analogs as aromatase inhibitors” (J Med Chem, 1996)

Tests used:
Aromatase [1] = biological target: T1, Aromatase (Homo sapiens, UniProt P11511)
T1 sequence (P11511 whole entry): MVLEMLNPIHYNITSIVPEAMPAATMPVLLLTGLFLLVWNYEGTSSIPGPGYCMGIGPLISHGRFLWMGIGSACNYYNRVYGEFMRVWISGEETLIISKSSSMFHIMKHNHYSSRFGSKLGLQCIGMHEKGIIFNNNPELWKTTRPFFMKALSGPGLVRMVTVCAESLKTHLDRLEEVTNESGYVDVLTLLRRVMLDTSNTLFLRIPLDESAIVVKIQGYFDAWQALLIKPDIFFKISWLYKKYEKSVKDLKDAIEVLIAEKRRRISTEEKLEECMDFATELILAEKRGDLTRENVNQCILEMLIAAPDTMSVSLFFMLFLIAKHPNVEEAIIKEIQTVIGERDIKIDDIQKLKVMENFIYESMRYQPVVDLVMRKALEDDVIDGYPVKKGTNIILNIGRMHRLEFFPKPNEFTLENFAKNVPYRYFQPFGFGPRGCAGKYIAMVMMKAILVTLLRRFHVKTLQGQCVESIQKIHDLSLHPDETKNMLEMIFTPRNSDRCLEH
Description: In vitro inhibition of cytochrome P450 19A1 in human placental microsomes

Aromatase [2] = biological target: T1, Aromatase; remark: listed apart in the source
Description: Apparent inhibition constant (Ki) against Cytochrome P450 19A1

CCCCC[C@@H]1CC2C3CCC(=O)C3(C)CCC2C2(C)CCCC=C12 (some centres undefined)
IC50 (Aromatase [1]): 12000 nM | Ki (Aromatase [2]): 1200 nM

CCC[C@H]1CC2C3CCC(=O)C3(C)CCC2C2(C)CCCC=C12 (some centres undefined)
IC50 (Aromatase [1]): 230 nM | Ki (Aromatase [2]): 30 nM

C[C@@H]1CC2C3CCC(=O)C3(C)CCC2C2(C)CCCC=C12 (some centres undefined)
IC50 (Aromatase [1]): 49 nM | Ki (Aromatase [2]): 5.3 nM

CCCCC[C@@H]1CC2C(CCC3(C)C(O)CCC23)C2(C)CCCC=C12 (some centres undefined)
IC50 (Aromatase [1]): > 50000 nM | Ki (Aromatase [2]): 100000 nM

CC[C@@H]1CC2C3CCC(=O)C3(C)CCC2C2(C)CCCC=C12 (some centres undefined)
IC50 (Aromatase [1]): 320 nM | Ki (Aromatase [2]): 43 nM

C[C@@H]1CC2C(CCC3(C)C(O)CCC23)C2(C)CCCC=C12 (some centres undefined)
IC50 (Aromatase [1]): 1600 nM | Ki (Aromatase [2]): 140 nM

CCCCC[C@H]1CC2C(CCC3(C)C(O)CCC23)C2(C)CCCC=C12 (some centres undefined)
IC50 (Aromatase [1]): > 50000 nM | Ki (Aromatase [2]): 44000 nM

CC12CCCC=C1CCC1C2CCC2(C)C1CC[C@@H]2O (some centres undefined)
IC50 (Aromatase [1]): 360 nM | Ki (Aromatase [2]): 45 nM

CC[C@H]1CC2C(CCC3(C)C(O)CCC23)C2(C)CCCC=C12 (some centres undefined)
IC50 (Aromatase [1]): 1300 nM | Ki (Aromatase [2]): 180 nM

CO[C@@H]1CC2C3CCC(=O)C3(C)CCC2C2(C)CCCC=C12 (some centres undefined)
IC50 (Aromatase [1]): 130 nM | Ki (Aromatase [2]): 12 nM

CC[C@@H]1CC2C(CCC3(C)C(O)CCC23)C2(C)CCCC=C12 (some centres undefined)
IC50 (Aromatase [1]): 3300 nM | Ki (Aromatase [2]): 340 nM

CCCCCCCC[C@@H]1CC2C3CCC(=O)C3(C)CCC2C2(C)CCCC=C12 (some centres undefined)
IC50 (Aromatase [1]): > 50000 nM | Ki (Aromatase [2]): 2600 nM

CCCCC[C@H]1CC2C3CCC(=O)C3(C)CCC2C2(C)CCCC=C12 (some centres undefined)
IC50 (Aromatase [1]): 9000 nM | Ki (Aromatase [2]): 400 nM

CCCCCCCC[C@H]1CC2C(CCC3(C)C(O)CCC23)C2(C)CCCC=C12 (some centres undefined)
IC50 (Aromatase [1]): > 50000 nM

C[C@H]1CC2C(CCC3(C)C(O)CCC23)C2(C)CCCC=C12 (some centres undefined)
IC50 (Aromatase [1]): 3700 nM | Ki (Aromatase [2]): 380 nM

CCCCCCCC[C@@H]1CC2C(CCC3(C)C(O)CCC23)C2(C)CCCC=C12 (some centres undefined)
IC50 (Aromatase [1]): > 50000 nM

C[C@H]1CC2C3CCC(=O)C3(C)CCC2C2(C)CCCC=C12 (some centres undefined)
IC50 (Aromatase [1]): 37 nM | Ki (Aromatase [2]): 3.1 nM

CC(=O)O[C@H]1CC2C3CCC(=O)C3(C)CCC2C2(C)CCCC=C12 (some centres undefined)
IC50 (Aromatase [1]): 160 nM | Ki (Aromatase [2]): 18 nM

CC(=O)O[C@@H]1CC2C3CCC(=O)C3(C)CCC2C2(C)CCCC=C12 (some centres undefined)
IC50 (Aromatase [1]): 260 nM | Ki (Aromatase [2]): 24 nM

CO[C@H]1CC2C3CCC(=O)C3(C)CCC2C2(C)CCCC=C12 (some centres undefined)
IC50 (Aromatase [1]): 120 nM | Ki (Aromatase [2]): 12 nM

CCC[C@@H]1CC2C3CCC(=O)C3(C)CCC2C2(C)CCCC=C12 (some centres undefined)
IC50 (Aromatase [1]): 440 nM | Ki (Aromatase [2]): 51 nM

CCCCCCCC[C@H]1CC2C3CCC(=O)C3(C)CCC2C2(C)CCCC=C12 (some centres undefined)
IC50 (Aromatase [1]): > 50000 nM | Ki (Aromatase [2]): 4100 nM

CC[C@H]1CC2C3CCC(=O)C3(C)CCC2C2(C)CCCC=C12 (some centres undefined)
IC50 (Aromatase [1]): 110 nM | Ki (Aromatase [2]): 43 nM
